# Patent US20130065868A1, “ANXIOYTIC MARCGRAVIACEAE COMPOSITIONS CONTAINING BETULINIC ACID, BETULINIC ACID DERIVATIVES, AND METHODS” (UNIVERSITY OF OTTAWA, priority 2002, published 2013)
# Where two headings read alike, the source gives them in different places.
# Key:
# [1] = biological target: tachykinin NK2 (Homo sapiens, UniProt P21452); experiment: MDS Panlabs screen: tachykinin NK2; type: binding; conditions: Peptides
# Procedure: (§1) Tests were conducted by MDS Panlabs to determine whether any of the classical neurotransmitter systems or the peptidergic systems thought to play a role in anxiety are affected by betulinic acid.
# [2] = biological target: neuropeptide Y1 (Homo sapiens, UniProt P25929); experiment: MDS Panlabs screen: neuropeptide Y1; type: binding; conditions: Peptides
# Procedure: as §1
# [3] = system: TNF non-selective; experiment: MDS Panlabs screen: TNF non-selective; type: binding; conditions: Peptides
# Procedure: as §1
# [4] = system: GABA transporter; experiment: MDS Panlabs screen: GABA transporter; type: binding; conditions: Gabaergic
# Procedure: as §1
# [5] = biological target: neuropeptide Y2 (Homo sapiens, UniProt P49146); experiment: MDS Panlabs screen: neuropeptide Y2; type: binding; conditions: Peptides
# Procedure: as §1
# [6] = biological target: EGF (Homo sapiens, UniProt P00533); experiment: MDS Panlabs screen: EGF; type: binding; conditions: Peptides
# Procedure: as §1
# [7] = system: adrenergic α2; experiment: MDS Panlabs screen: adrenergic α2; type: binding; conditions: Catecholamines
# Procedure: as §1
# [8] = general description of the substance; cited from earlier work
# [9] = system: GABAA, agonist site; experiment: MDS Panlabs screen: GABAA, agonist site; type: binding; conditions: Gabaergic
# Procedure: as §1
# [10] = system: CD-1 strain of mice; experiment: Elevated plus maze test in CD-1 mice; type: in vivo, mouse; conditions: for entries into the open (anxiogenic) arm of the elevated plus maze: 45-60 min, vs peanut oil control
# Procedure: Previous experiments were all conducted in experimental rats. Here we tested the effect of betulinic acid on CD-1 strain of mice. Mice received 0.25 or 2.5 mg/kg of betulinic acid, or peanut oil only (control), intra peritoneally (“i.p.”), and were tested 45-60 minutes later in the elevated plus maze test.
# [11] = cited from earlier work
# [12] = system: 5-HT2; experiment: MDS Panlabs screen: 5-HT2; type: binding; conditions: Serotonin (5-HT)
# Procedure: as §1
# [13] = biological target: tachykinin NK3 (Homo sapiens, UniProt P29371); experiment: MDS Panlabs screen: tachykinin NK3; type: binding; conditions: Peptides
# Procedure: as §1
# [14] = system: muscarinic non-selective; experiment: MDS Panlabs screen: muscarinic non-selective; type: binding; conditions: Acetylcholine
# Procedure: as §1
# [15] = biological target: GABAB (Homo sapiens, UniProt Q9UBS5); experiment: MDS Panlabs screen: GABAB; type: binding; conditions: Gabaergic
# Procedure: as §1
# [16] = biological target: Histamine H1 (Homo sapiens, UniProt P35367); experiment: MDS Panlabs screen: Histamine H1; type: binding
# Procedure: as §1
# [17] = biological target: galanin GalR1 (Homo sapiens, UniProt P47211); experiment: MDS Panlabs screen: galanin GalR1; type: binding; conditions: Peptides
# Procedure: as §1
# [18] = system: Sprague-Dawley rats; experiment: Rat social interaction paradigm; type: in vivo; conditions: 0.5 mg/kg i.p.
# Excerpt: The rat social interaction paradigm takes advantage of rats' natural behaviour in novel situations. The more ‘anxious’ the animals are, the less likely they are engage in social interaction with the cohort. Anxiolytic drugs typically increase the amount of time rodents spend socially interacting with one another. (Pile, S. E., (1980). The use of social interaction as a method for detecting anxiolytic activity of chlor-diazepoxide-like drugs. In Current Protocols in Neuroscience (pp. 8.3.3-8.3.4), John-Wiley & Sons).
# The social-interaction (SI) test arena constituted of a 60×60 cm white Plexiglas floor, enclosed by 35-cm high walls of the same material. The arena was surrounded by black curtain, and a closed circuit camera was positioned above the setup, to feed live video signals to the experimenter seated in a separate room, for behavioral assessment and recording.
# Each rat was placed alone in the SI box for 7.5 min daily for 2 days, in order to familiarize the animals with the test environment. Animals were paired according to their body weights (less than 10 g difference) and each pair was randomly assigned to one of the treatment groups. Rats received either betulinic acid 0.5 mg/kg i.p., betulinic acid methyl ester (methyl betulinate) 0.5 mg/kg i.p., or peanut oil only (control). Drugs were injected (i.p.) 60 min prior to testing. Tests were carried out at three intervals, 1 h, 2.5 h and 4 h after injection. Each pair was tested at the 1-h interval, then new pairs from within the same drug group were formed for the 2.5-h interval and then again at the 4-h interval (new pairs were formed for each test interval, to control for the potential confounding effect partner familiarity). […] The behaviors scored included the amount of time the pairs spent interacting together (sniffing, grooming and chasing) as well as the number of times the animals initiated contact.
# [19] = biological target: COX-2 (Homo sapiens, UniProt P35354); experiment: MDS Panlabs screen: cyclooxygenase COX-2; type: biochemical
# Procedure: as §1
# [20] = system: somatostatin; experiment: MDS Panlabs screen: somatostatin; type: binding; conditions: Peptides
# Procedure: as §1
# [21] = system: BALB/c mice; experiment: Elevated plus maze test in BALB/c mice; type: in vivo, mouse; conditions: vs peanut oil only control
# Excerpt: BALB/c mice represent a strain of mice that is very stress-reactive.
# Mice received dosages of betulinic acid in accordance with the previous example.
# [22] = biological target: MAO B (Homo sapiens, UniProt P27338); experiment: MDS Panlabs screen: MAO B; type: biochemical; conditions: Catecholamines
# Procedure: as §1
# [23] = biological target: CCKA (Homo sapiens, UniProt P32238); experiment: MDS Panlabs screen: cholecystokinin (CCK) CCKA; type: binding; conditions: Peptides
# Procedure: as §1
# [24] = biological target: domaine D1 (Homo sapiens, UniProt P21728); experiment: MDS Panlabs screen: D1; type: binding; conditions: Catecholamines
# Procedure: as §1
# [25] = system: Glutamate non-selective; experiment: MDS Panlabs screen: Glutamate non-selective; type: binding; conditions: Gabaergic
# Procedure: as §1
# [26] = system: nicototinic; experiment: MDS Panlabs screen: nicotinic; type: binding; conditions: Acetylcholine
# Procedure: as §1
# [27] = system: neurotensin; experiment: MDS Panlabs screen: neurotensin; type: binding; conditions: Peptides
# Procedure: as §1
# [28] = Elevated plus maze, betulinic acid vs structurally related compounds (Example 11); type: in vivo; conditions: 0.5 mg/kg (FIG. 7)
# Excerpt: This example compares the anxiolytic activity of betulinic acid and some other structurally related compounds. Results are illustrated in FIG. 7.
# [29] = biological target: COX-1 (Homo sapiens, UniProt P23219); experiment: MDS Panlabs screen: cyclooxygenase COX-1; type: biochemical
# Procedure: as §1
# GABAB, sequence (Q9UBS5 15-961 limits assumed): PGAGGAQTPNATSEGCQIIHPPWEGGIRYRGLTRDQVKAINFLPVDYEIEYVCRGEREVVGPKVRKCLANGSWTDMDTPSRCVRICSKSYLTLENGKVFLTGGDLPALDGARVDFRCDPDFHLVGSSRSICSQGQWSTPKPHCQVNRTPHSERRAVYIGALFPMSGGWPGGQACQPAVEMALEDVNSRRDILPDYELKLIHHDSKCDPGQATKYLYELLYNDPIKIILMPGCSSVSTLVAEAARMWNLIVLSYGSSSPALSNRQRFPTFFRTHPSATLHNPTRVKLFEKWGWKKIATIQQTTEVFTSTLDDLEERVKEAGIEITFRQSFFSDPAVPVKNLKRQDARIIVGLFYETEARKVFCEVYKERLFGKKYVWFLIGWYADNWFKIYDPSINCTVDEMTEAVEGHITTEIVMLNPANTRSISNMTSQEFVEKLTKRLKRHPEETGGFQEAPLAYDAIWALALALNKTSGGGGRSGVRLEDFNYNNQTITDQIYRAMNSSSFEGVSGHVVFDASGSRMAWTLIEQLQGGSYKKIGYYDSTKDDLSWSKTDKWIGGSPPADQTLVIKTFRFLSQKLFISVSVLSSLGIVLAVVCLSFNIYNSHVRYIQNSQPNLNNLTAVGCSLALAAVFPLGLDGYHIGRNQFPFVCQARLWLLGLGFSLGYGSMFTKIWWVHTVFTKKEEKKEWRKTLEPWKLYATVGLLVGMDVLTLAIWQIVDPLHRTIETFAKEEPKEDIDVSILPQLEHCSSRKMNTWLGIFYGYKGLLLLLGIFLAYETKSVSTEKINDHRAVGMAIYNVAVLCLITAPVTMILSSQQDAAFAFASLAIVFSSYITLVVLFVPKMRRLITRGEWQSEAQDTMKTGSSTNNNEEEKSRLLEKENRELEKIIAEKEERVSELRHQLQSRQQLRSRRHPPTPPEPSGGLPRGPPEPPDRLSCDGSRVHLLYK
# GABAB, sequence (O75899 42-941 partner): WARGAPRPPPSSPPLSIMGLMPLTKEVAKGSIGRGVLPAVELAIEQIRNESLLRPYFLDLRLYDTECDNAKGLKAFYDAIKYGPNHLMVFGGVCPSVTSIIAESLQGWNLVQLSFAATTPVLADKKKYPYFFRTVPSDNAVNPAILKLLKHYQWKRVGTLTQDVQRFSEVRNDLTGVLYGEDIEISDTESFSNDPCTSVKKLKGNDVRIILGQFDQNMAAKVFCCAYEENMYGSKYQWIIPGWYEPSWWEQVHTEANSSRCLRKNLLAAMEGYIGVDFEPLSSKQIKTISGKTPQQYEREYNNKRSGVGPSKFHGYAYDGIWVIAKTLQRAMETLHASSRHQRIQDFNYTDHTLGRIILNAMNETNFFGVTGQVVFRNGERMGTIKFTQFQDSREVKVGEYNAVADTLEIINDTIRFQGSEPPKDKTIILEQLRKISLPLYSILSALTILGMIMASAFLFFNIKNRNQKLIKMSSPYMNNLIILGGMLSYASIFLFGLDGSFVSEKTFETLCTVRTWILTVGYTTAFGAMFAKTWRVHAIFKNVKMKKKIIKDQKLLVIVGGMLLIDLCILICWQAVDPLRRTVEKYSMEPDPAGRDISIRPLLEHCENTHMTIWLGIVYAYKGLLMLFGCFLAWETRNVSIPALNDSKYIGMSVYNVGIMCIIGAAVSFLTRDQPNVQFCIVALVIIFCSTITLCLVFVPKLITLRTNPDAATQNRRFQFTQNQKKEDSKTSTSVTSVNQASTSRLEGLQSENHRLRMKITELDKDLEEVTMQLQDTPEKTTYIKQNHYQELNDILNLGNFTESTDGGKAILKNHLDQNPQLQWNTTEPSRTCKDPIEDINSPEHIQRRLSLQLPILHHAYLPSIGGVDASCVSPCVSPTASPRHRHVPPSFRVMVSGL
# EGF, sequence (P00533 25-1210): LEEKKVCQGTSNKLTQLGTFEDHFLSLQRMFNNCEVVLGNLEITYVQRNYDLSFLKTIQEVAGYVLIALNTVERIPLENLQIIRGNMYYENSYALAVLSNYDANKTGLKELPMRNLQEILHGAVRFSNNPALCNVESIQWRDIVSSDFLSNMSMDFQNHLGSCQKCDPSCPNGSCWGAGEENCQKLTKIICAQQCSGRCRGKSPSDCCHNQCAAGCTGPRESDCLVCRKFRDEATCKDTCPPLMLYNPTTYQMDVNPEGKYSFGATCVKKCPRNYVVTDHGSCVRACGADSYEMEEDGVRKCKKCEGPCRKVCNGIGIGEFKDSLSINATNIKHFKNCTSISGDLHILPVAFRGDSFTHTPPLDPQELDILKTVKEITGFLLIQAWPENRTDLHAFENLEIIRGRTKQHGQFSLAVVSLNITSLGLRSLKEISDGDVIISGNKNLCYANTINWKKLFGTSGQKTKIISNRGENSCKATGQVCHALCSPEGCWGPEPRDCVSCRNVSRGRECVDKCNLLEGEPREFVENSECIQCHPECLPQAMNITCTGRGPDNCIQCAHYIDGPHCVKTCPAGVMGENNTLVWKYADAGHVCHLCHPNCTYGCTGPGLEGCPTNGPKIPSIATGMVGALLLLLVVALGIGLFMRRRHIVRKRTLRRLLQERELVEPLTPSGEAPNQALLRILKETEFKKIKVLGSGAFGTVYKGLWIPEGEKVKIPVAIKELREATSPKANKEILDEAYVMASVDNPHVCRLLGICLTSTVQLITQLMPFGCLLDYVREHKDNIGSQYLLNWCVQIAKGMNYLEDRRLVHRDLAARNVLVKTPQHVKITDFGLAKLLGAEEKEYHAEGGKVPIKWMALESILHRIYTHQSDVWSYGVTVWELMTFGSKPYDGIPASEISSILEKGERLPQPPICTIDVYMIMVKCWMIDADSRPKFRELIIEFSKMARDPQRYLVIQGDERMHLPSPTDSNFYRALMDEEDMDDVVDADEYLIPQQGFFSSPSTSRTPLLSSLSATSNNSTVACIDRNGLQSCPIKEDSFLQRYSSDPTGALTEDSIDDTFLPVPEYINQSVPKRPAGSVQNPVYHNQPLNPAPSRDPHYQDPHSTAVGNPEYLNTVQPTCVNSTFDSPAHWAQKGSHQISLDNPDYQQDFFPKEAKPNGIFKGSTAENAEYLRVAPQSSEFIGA
# tachykinin NK3, sequence (P29371 whole entry): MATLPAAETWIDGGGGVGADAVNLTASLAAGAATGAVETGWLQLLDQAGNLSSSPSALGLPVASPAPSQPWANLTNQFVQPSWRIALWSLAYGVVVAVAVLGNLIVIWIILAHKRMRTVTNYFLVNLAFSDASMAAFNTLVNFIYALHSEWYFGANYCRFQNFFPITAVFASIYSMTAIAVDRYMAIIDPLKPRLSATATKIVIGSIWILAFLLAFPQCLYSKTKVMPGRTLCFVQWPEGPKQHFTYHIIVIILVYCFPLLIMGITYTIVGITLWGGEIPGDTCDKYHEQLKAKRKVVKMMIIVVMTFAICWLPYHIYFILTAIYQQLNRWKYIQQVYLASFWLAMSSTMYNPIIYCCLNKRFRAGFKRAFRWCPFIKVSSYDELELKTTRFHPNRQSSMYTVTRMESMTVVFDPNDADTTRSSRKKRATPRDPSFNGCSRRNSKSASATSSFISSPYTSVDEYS
# COX-1, sequence (P23219 24-599): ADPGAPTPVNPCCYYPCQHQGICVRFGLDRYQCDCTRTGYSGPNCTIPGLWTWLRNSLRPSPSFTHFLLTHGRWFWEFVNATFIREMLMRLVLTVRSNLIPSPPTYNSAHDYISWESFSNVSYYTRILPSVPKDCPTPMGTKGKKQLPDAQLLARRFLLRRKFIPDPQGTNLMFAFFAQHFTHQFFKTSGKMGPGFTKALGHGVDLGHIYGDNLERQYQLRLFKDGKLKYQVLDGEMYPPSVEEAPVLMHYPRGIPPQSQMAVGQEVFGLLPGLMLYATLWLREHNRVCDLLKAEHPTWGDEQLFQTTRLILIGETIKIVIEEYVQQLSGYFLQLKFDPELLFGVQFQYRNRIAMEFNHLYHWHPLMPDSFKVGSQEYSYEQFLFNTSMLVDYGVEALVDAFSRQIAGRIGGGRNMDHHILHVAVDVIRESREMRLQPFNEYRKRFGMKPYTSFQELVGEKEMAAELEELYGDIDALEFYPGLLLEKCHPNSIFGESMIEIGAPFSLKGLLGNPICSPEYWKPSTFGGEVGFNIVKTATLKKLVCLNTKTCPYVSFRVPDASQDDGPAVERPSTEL
# neuropeptide Y1, sequence (P25929 whole entry): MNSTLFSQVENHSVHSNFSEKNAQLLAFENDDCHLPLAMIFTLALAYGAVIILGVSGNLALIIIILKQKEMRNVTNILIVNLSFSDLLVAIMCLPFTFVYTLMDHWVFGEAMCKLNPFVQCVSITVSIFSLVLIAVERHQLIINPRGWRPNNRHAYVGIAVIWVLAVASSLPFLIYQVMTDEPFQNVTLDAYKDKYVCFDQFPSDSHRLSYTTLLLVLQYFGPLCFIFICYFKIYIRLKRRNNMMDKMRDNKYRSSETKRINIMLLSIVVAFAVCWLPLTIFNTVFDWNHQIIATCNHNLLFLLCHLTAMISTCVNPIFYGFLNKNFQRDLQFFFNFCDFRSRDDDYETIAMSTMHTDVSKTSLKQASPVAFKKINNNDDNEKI
# galanin GalR1, sequence (P47211 whole entry): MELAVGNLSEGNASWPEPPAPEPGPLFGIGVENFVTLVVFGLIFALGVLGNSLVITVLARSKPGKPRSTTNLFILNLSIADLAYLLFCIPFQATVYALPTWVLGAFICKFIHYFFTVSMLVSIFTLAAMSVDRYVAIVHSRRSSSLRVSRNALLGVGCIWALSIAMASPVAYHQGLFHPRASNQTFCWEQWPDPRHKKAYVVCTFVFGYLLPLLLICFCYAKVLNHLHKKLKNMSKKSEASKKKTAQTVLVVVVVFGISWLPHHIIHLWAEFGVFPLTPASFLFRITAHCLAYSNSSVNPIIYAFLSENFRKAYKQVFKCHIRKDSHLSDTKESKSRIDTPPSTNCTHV
smiles,measurement,setting,value
"C=C(C)[C@@H]1CC[C@]2(C(=O)O)CC[C@]3(C)C(CC[C@@H]4[C@@]5(C)CC[C@H](O)C(C)(C)[C@@H]5CC[C@]43C)[C@@H]12 (stereo partly shown) [betulinic acid, Betulinic acid]",affected by betulinic acid,[1],none of the following neurotransmitters or proteins were affected
same,affected by betulinic acid,[2],none of the following neurotransmitters or proteins were affected
same,affected by betulinic acid,[3],none of the following neurotransmitters or proteins were affected
same,affected by betulinic acid,[4],none of the following neurotransmitters or proteins were affected
same,affected by betulinic acid,[5],none of the following neurotransmitters or proteins were affected
same,affected by betulinic acid,[6],none of the following neurotransmitters or proteins were affected
same,affected by betulinic acid,[7],none of the following neurotransmitters or proteins were affected
same,solubility (solvents),[8],"soluble in water, ethanol, ether, acetone, benzene, and chloroform"
same,affected by betulinic acid,[9],none of the following neurotransmitters or proteins were affected
same,entries into the open (anxiogenic) arm of the elevated plus maze,"[10]; CD-1 mice, 0.25 mg/kg i.p.",more often than controls
same,entries into the open (anxiogenic) arm of the elevated plus maze,"[10]; CD-1 mice, 2.5 mg/kg i.p.",more often than controls
same,proportion of time spent on the open arm of the maze,"[10]; CD-1 mice, 0.25 or 2.5 mg/kg i.p. (dose not singled out in the sentence)",increased significantly
same,maximally effective dose,"[10]; mice, i.p., elevated plus maze, higher dose did not increase the effect further",0.25 mg/kg
same,toxicity in a Hippocratic screen,[11]; 200 mg/kg,non-toxic
same,toxicity in a Hippocratic screen,[11]; 400 mg/kg,non-toxic
same,affected by betulinic acid,[12],none of the following neurotransmitters or proteins were affected
same,affected by betulinic acid,[13],none of the following neurotransmitters or proteins were affected
same,affected by betulinic acid,[14],none of the following neurotransmitters or proteins were affected
same,affected by betulinic acid,[15],none of the following neurotransmitters or proteins were affected
same,affected by betulinic acid,[16],none of the following neurotransmitters or proteins were affected
same,affected by betulinic acid,[17],none of the following neurotransmitters or proteins were affected
same,frequency of initiated contact,[18],not significant
same,amount of social interaction (interaction time) compared to the control group,"[18]; data collapsed across 1 h, 2.5 h and 4 h (FIG. 8)",significantly increased the amount of social interaction
same,affected by betulinic acid,[19],none of the following neurotransmitters or proteins were affected
same,affected by betulinic acid,[20],none of the following neurotransmitters or proteins were affected
same,number of entries on the open arm of the elevated plus maze,[21]; 0.25 mg/kg i.p.,significantly increased
same,proportion of time spent on the open arm of the elevated plus maze,[21]; 0.25 mg/kg i.p.,significantly increased
same,number of entries on the open arm of the elevated plus maze,[21]; 2.5 mg/kg i.p.,significantly increased
same,proportion of time spent on the open arm of the elevated plus maze,[21]; 2.5 mg/kg i.p.,significantly increased
same,affected by betulinic acid,[22],none of the following neurotransmitters or proteins were affected
same,affected by betulinic acid,[23],none of the following neurotransmitters or proteins were affected
same,affected by betulinic acid,[24],none of the following neurotransmitters or proteins were affected
same,affected by betulinic acid,[25],none of the following neurotransmitters or proteins were affected
same,affected by betulinic acid,[26],none of the following neurotransmitters or proteins were affected
same,affected by betulinic acid,[27],none of the following neurotransmitters or proteins were affected
same,proportion of time spent in the open arm of the elevated plus maze,[28],increased
same,affected by betulinic acid,[29],none of the following neurotransmitters or proteins were affected
